Legend:
T-cell [1] = assay: Immunosuppressive activity in BALB/c mouse T-lymphocytes assessed as inhibition of ConA-induced cell proliferation pretreated with Concanavalin A for 24 hrs followed by compound addition and measured after 48 hrs by CCK-8 assay; assay type: functional, cell-based
B-cell line = assay: Immunosuppressive activity in BALB/c mouse B-lymphocytes assessed as inhibition of LPS-induced cell proliferation pretreated with LPS for 24 hrs followed by compound addition and measured after 48 hrs by CCK-8 assay; assay type: functional, cell-based
T-cell [2] = assay: (§1) Immunosuppressive activity in BALB/c mouse T-lymphocytes assessed as reduction in ConA-induced CD4 subpopulation by measuring CD3positiveCD4positive cells at 5 uM pretreated with Concanavalin A for 24 hrs followed by compound addition and measured after 48 hrs by flow cytometry analysis (reference value: 87.8%); assay type: functional; parameters: scale not given: the % may be the effect or the level left
T-cell [3] = assay: as §1, with “CD8” for “CD4”, “CD3negativeCD8negative” for “CD3positiveCD4positive”, “0%)” for “87.8%)”; assay type: functional; parameters: scale not given: the % may be the effect or the level left
T-cell [4] = assay: as §1, with “CD3negativeCD4positive” for “CD3positiveCD4positive”, “2.5” for “5”, “0%)” for “87.8%)”; assay type: functional; parameters: scale not given: the % may be the effect or the level left
T-cell [5] = assay: as §1, with “CD8” for “CD4”, “CD3positiveCD8positive” for “CD3positiveCD4positive”, “29.1%)” for “87.8%)”; assay type: functional; parameters: scale not given: the % may be the effect or the level left
T-cell [6] = assay: (§2) Immunosuppressive activity in ConA-induced BALB/c mouse T-lymphocytes assessed as Treg cell subsets by measuring CD25negativeFOXP3positive cells at 2.5 uM pretreated with Concanavalin A for 24 hrs followed by compound addition and measured after 48 hrs by flow cytometry analysis (reference value: 0.2%); assay type: functional
T-cell [7] = assay: as §2, with “5” for “2.5”; assay type: functional
T-cell [8] = assay: as §2, with “CD25positiveFOXP3negative” for “CD25negativeFOXP3positive”, “5” for “2.5”, “66.9%)” for “0.2%)”; assay type: functional
T-cell [9] = assay: as §1, with “CD8” for “CD4”, “CD3positiveCD8positive” for “CD3positiveCD4positive”, “2.5” for “5”, “29.1%)” for “87.8%)”; assay type: functional; parameters: scale not given: the % may be the effect or the level left
T-cell [10] = assay: as §1, with “CD8” for “CD4”, “CD3negativeCD8positive” for “CD3positiveCD4positive”, “0%)” for “87.8%)”; assay type: functional; parameters: scale not given: the % may be the effect or the level left
T-cell [11] = assay: as §2, with “CD25positiveFOXP3positive” for “CD25negativeFOXP3positive”, “5.7%)” for “0.2%)”; assay type: functional
T-cell [12] = assay: as §1, with “CD8” for “CD4”, “CD3negativeCD8negative” for “CD3positiveCD4positive”, “2.5” for “5”, “0%)” for “87.8%)”; assay type: functional; parameters: scale not given: the % may be the effect or the level left
T-cell [13] = assay: as §1, with “CD8” for “CD4”, “CD3negativeCD8positive” for “CD3positiveCD4positive”, “2.5” for “5”, “0%)” for “87.8%)”; assay type: functional; parameters: scale not given: the % may be the effect or the level left
T-cell [14] = assay: as §2, with “CD25negativeFOXP3negative” for “CD25negativeFOXP3positive”, “27.2%)” for “0.2%)”; assay type: functional
T-cell [15] = assay: as §1, with “CD3negativeCD4positive” for “CD3positiveCD4positive”, “0%)” for “87.8%)”; assay type: functional; parameters: scale not given: the % may be the effect or the level left
T-cell [16] = assay: as §1, with “CD3negativeCD4negative” for “CD3positiveCD4positive”, “0%)” for “87.8%)”; assay type: functional; parameters: scale not given: the % may be the effect or the level left
T-cell [17] = assay: as §1, with “2.5” for “5”; assay type: functional; parameters: scale not given: the % may be the effect or the level left
T-cell [18] = assay: as §2, with “CD25positiveFOXP3negative” for “CD25negativeFOXP3positive”, “66.9%)” for “0.2%)”; assay type: functional
T-cell [19] = assay: as §1, with “CD8” for “CD4”, “CD3positiveCD8negative” for “CD3positiveCD4positive”, “70.9%)” for “87.8%)”; assay type: functional; parameters: scale not given: the % may be the effect or the level left
T-cell [20] = assay: as §1, with “CD3positiveCD4negative” for “CD3positiveCD4positive”, “2.5” for “5”, “12.2%)” for “87.8%)”; assay type: functional; parameters: scale not given: the % may be the effect or the level left
T-cell [21] = assay: as §1, with “CD8” for “CD4”, “CD3positiveCD8negative” for “CD3positiveCD4positive”, “2.5” for “5”, “70.9%)” for “87.8%)”; assay type: functional; parameters: scale not given: the % may be the effect or the level left
T-cell [22] = assay: as §2, with “CD25negativeFOXP3negative” for “CD25negativeFOXP3positive”, “5” for “2.5”, “27.2%)” for “0.2%)”; assay type: functional
T-cell [23] = assay: as §1, with “CD3negativeCD4negative” for “CD3positiveCD4positive”, “2.5” for “5”, “0%)” for “87.8%)”; assay type: functional; parameters: scale not given: the % may be the effect or the level left
T-cell [24] = assay: as §1, with “CD3positiveCD4negative” for “CD3positiveCD4positive”, “12.2%)” for “87.8%)”; assay type: functional; parameters: scale not given: the % may be the effect or the level left
T-cell [25] = assay: as §2, with “CD25positiveFOXP3positive” for “CD25negativeFOXP3positive”, “5” for “2.5”, “5.7%)” for “0.2%)”; assay type: functional
T-cell [26] = assay: as §1, with “CD8” for “CD4”, “CD3positiveCD8positive” for “CD3positiveCD4positive”, “10” for “5”, “29.1%)” for “87.8%)”; assay type: functional; parameters: scale not given: the % may be the effect or the level left
T-cell [27] = assay: as §1, with “CD8” for “CD4”, “CD3negativeCD8negative” for “CD3positiveCD4positive”, “10” for “5”, “0%)” for “87.8%)”; assay type: functional; parameters: scale not given: the % may be the effect or the level left
T-cell [28] = assay: as §2, with “CD25positiveFOXP3negative” for “CD25negativeFOXP3positive”, “10” for “2.5”, “66.9%)” for “0.2%)”; assay type: functional
T-cell [29] = assay: as §1, with “CD8” for “CD4”, “CD3negativeCD8positive” for “CD3positiveCD4positive”, “10” for “5”, “0%)” for “87.8%)”; assay type: functional; parameters: scale not given: the % may be the effect or the level left
T-cell [30] = assay: as §1, with “CD3negativeCD4positive” for “CD3positiveCD4positive”, “10” for “5”, “0%)” for “87.8%)”; assay type: functional; parameters: scale not given: the % may be the effect or the level left
T-cell [31] = assay: as §1, with “CD3negativeCD4negative” for “CD3positiveCD4positive”, “10” for “5”, “0%)” for “87.8%)”; assay type: functional; parameters: scale not given: the % may be the effect or the level left
T-cell [32] = assay: as §1, with “10” for “5”; assay type: functional; parameters: scale not given: the % may be the effect or the level left
T-cell [33] = assay: as §2, with “CD25positiveFOXP3positive” for “CD25negativeFOXP3positive”, “10” for “2.5”, “5.7%)” for “0.2%)”; assay type: functional
T-cell [34] = assay: as §1, with “CD3positiveCD4negative” for “CD3positiveCD4positive”, “10” for “5”, “12.2%)” for “87.8%)”; assay type: functional; parameters: scale not given: the % may be the effect or the level left
T-cell [35] = assay: as §2, with “CD25negativeFOXP3negative” for “CD25negativeFOXP3positive”, “10” for “2.5”, “27.2%)” for “0.2%)”; assay type: functional
T-cell [36] = assay: as §2, with “10” for “2.5”; assay type: functional
T-cell [37] = assay: as §1, with “CD8” for “CD4”, “CD3positiveCD8negative” for “CD3positiveCD4positive”, “10” for “5”, “70.9%)” for “87.8%)”; assay type: functional; parameters: scale not given: the % may be the effect or the level left

Compound `Cc1cc(O)c2c3c1C(=O)[C@@H]1c4c(c(O)cc5cc(O)cc(C)c45)[C@@]3(COC2=O)[C@H]1O` has an IC50 (T-cell [1]) of over 40 µM and an IC50 (B-cell line) of over 40 µM.
For `Cc1cc(O)c2c3c1C(=O)[C@@H]1c4c(c(O)c5c6c(c(O)cc(C)c46)C(=O)O5)[C@@]3(COC2=O)[C@H]1O`, the IC50 (T-cell [1]) was over 40 µM and the IC50 (B-cell line) was over 40 µM.
Compound `Cc1cc(O)c2c3c1C(=O)[C@@H]1C4=C(C(=O)c5cn(CCO)c(=O)c6c(O)cc(C)c4c56)[C@@]3(COC2=O)[C@H]1O` has an IC50 (T-cell [1]) of over 40 µM and an IC50 (B-cell line) of over 40 µM.
`COC(=O)C[C@@H]1OC(=O)c2c(O)cc(C)c3c4c(c(O)c1c23)[C@]12COC(=O)c3c(O)cc(C)c(c31)C(=O)[C@H]4[C@@H]2OC(C)=O` gave an IC50 (T-cell [1]) of 12.8 µM and an IC50 (B-cell line) of 8.6 µM.
Work on `CC(=O)O[C@H]1[C@@H]2C(=O)c3c(C)cc(O)c4c3[C@@]1(COC4=O)C1=C2c2c(C)cc(O)c3c2C(C1=O)C1CCCN1C3=O` (stereo partly drawn) yielded an IC50 (T-cell [1]) of over 40 µM and an IC50 (B-cell line) of over 40 µM.
In the case of `Cc1cc(O)c2c3c1C(=O)[C@@H]1c4c(c(O)c5c6c(c(O)cc(C)c46)C(=O)OC5)[C@@]3(COC2=O)[C@H]1O`, the IC50 (T-cell [1]) is reported as over 40 µM and the IC50 (B-cell line) is reported as over 40 µM.
Compound `COC(=O)CCCn1cc2c3c(c(C)cc(O)c3c1=O)C1=C(C2=O)[C@]23COC(=O)c4c(O)cc(C)c(c42)C(=O)[C@H]1[C@@H]3OC(C)=O` has an Activity (T-cell [2]) of 22.3%, an Activity (T-cell [3]) of 0% and an Activity (T-cell [4]) of 0%. It also gave an Activity (T-cell [5]) of 30.1%, an Activity (T-cell [6]) of 0.1% and an Activity (T-cell [7]) of 0.4%. The Activity (T-cell [8]) was 75.4%, the Activity (T-cell [9]) was 31.4% and the Activity (T-cell [10]) was 0%. The Activity (T-cell [11]) was 3.5%, the Activity (T-cell [12]) was 0% and the Activity (T-cell [13]) was 0%. For the same compound, the Activity (T-cell [14]) was 18.1%, the Activity (T-cell [15]) was 77.7% and the IC50 (T-cell [1]) was 2.6 µM. For the same compound, the Activity (T-cell [16]) was 0%, the IC50 (B-cell line) was 1.6 µM and the Activity (T-cell [17]) was 83.2%. The Activity (T-cell [18]) was 78.3%, the Activity (T-cell [19]) was 69.9% and the Activity (T-cell [20]) was 16.8%. It also gave an Activity (T-cell [21]) of 68.6%, an Activity (T-cell [22]) of 20.8% and an Activity (T-cell [23]) of 0%. It also gave an Activity (T-cell [24]) of 0% and an Activity (T-cell [25]) of 3.3%.
Compound `CO[C@@H]1N(CCO)C(=O)c2c(O)cc(C)c3c2[C@]1(O)C(=O)C1=C3[C@H]2C(=O)c3c(C)cc(O)c4c3[C@]1(COC4=O)[C@H]2O` has an Activity (T-cell [2]) of 76.6%, an Activity (T-cell [26]) of 38.8% and an Activity (T-cell [3]) of 0%. For the same compound, the Activity (T-cell [27]) was 0%, the Activity (T-cell [5]) was 39.5% and the Activity (T-cell [7]) was 0.1%. The Activity (T-cell [28]) was 76%, the Activity (T-cell [8]) was 77.2% and the Activity (T-cell [10]) was 0%. For the same compound, the Activity (T-cell [29]) was 0%, the Activity (T-cell [30]) was 0% and the Activity (T-cell [31]) was 0%. For the same compound, the Activity (T-cell [32]) was 75.9%, the Activity (T-cell [33]) was 2.5% and the Activity (T-cell [34]) was 24.1%. For the same compound, the Activity (T-cell [15]) was 0%, the IC50 (T-cell [1]) was 9.3 µM and the Activity (T-cell [16]) was 0%. For the same compound, the Activity (T-cell [35]) was 21.3%, the IC50 (B-cell line) was 2.1 µM and the Activity (T-cell [36]) was 0.3%. It also gave an Activity (T-cell [19]) of 60.5%, an Activity (T-cell [22]) of 18.1% and an Activity (T-cell [24]) of 23.4%. It also gave an Activity (T-cell [25]) of 4.6% and an Activity (T-cell [37]) of 61.2%.
For `Cc1cc(O)c2c3c1C(=O)[C@@H]1c4c(c(O)c5c6c(c(O)cc(C)c46)C(=O)OC5=O)[C@@]3(COC2=O)[C@H]1O`, the IC50 (T-cell [1]) was over 40 µM and the IC50 (B-cell line) was over 40 µM.
In the case of `CC(=O)O[C@H]1[C@@H]2C(=O)c3c(C)cc(O)c4c3[C@@]1(COC4=O)c1c(O)cc3cc(O)cc(C)c3c12`, the IC50 (T-cell [1]) is reported as over 40 µM and the IC50 (B-cell line) is reported as over 40 µM.
